In ChEMBL document CHEMBL3046882, “Synthesis and antibacterial activity against ralstonia solanacearum for novel hydrazone derivatives containing a pyridine moiety” (2012):

How the values were obtained:
[1] = system: Ralstonia solanacearum; test: Antibacterial activity against Ralstonia solanacearum assessed as growth inhibition at […] after 48 hrs by turbidimeter test; type: functional; parameters: dose or concentration left out as unconfirmed; settings: for inhibition of growth: read-out: GI
[2] = system: Ralstonia solanacearum; test: Antibacterial activity against Ralstonia solanacearum assessed as growth inhibition at […] after 48 hrs by turbidimeter test; type: functional; parameters: dose or concentration left out as unconfirmed; settings: for inhibition of growth: read-out: GI

COc1ccc(OC)c(/C=N\NC(=O)c2cc(Cl)cc(C)c2NC(=O)c2cccnc2Cl)c1
inhibition of growth [1]: 1.9% | inhibition of growth [2]: 25.2%

Cc1cc(Cl)cc(C(=O)N/N=C\N(C)C)c1NC(=O)c1cccnc1Cl
inhibition of growth [1]: 57.1% | inhibition of growth [2]: 100%

COc1cccc(/C=N\NC(=O)c2cc(Cl)cc(C)c2NC(=O)c2cccnc2Cl)c1OC
inhibition of growth [1]: 0% | inhibition of growth [2]: 40.3%

Cc1cc(Cl)cc(C(=O)N/N=C\c2ccc(Cl)c(Cl)c2)c1NC(=O)c1cccnc1Cl
inhibition of growth [1]: 12.4% | inhibition of growth [2]: 35%

Cc1cc(Cl)cc(C(=O)N/N=C\c2ccccc2Cl)c1NC(=O)c1cccnc1Cl
inhibition of growth [1]: 0% | inhibition of growth [2]: 6%

COPPER HYDROXIDE
growth inhibition (GI) [1]: 100% | growth inhibition (GI) [2]: 100%

COc1ccc(/C=N\NC(=O)c2cc(Cl)cc(C)c2NC(=O)c2cccnc2Cl)c(OC)c1
inhibition of growth [1]: 0% | inhibition of growth [2]: 36.1%

Cc1cc(Cl)cc(C(=O)N/N=C\c2c(Cl)cccc2Cl)c1NC(=O)c1cccnc1Cl
inhibition of growth [1]: 15.2% | inhibition of growth [2]: 18.2%

CC/C=N\NC(=O)c1cc(Cl)cc(C)c1NC(=O)c1cccnc1Cl
inhibition of growth [1]: 0% | inhibition of growth [2]: 5%

Cc1cc(Cl)cc(C(=O)N/N=C\c2ccc(F)cc2)c1NC(=O)c1cccnc1Cl
inhibition of growth [1]: 1.1% | inhibition of growth [2]: 5%

Cc1cc(Cl)cc(C(=O)N/N=C\c2cccc(C(F)(F)F)c2)c1NC(=O)c1cccnc1Cl
inhibition of growth [1]: 33.3% | inhibition of growth [2]: 80.9%

Cc1cc(Cl)cc(C(=O)N/N=C\c2ccc(C(C)(C)C)cc2)c1NC(=O)c1cccnc1Cl
inhibition of growth [1]: 18.2% | inhibition of growth [2]: 39%
